Source: ChEMBL document CHEMBL1201862, “PubChem BioAssay data set” (2004)
Calls of active or inactive are those of the source.

Columns and labels:
[1] = Luminescence Cell-Based Dose Response HTS to Identify Activators of 5'UTR Stem-Loop Driven Prion Protein mRNA Translation in H4-C Neuroglioblastoma Cells. [Related pubchem assays: 1829 (Project Summary), 1814 (Primary HTS)]; format: functional
[2] = Luminescence Cell-Based Dose Response HTS to Identify Activators of Luciferase Translation or Activity in H4-C Neuroglioblastoma Cells. [Related pubchem assays: 1829 (Project Summary), 1814 (Primary HTS)]; format: functional
[3] = Luminescence Cell-Based Dose Retest to Confirm Activators of 5'UTR Stem-Loop Driven Alpha-Synuclein mRNA Translation in H4 Neuroglioblastoma Cells. [Related pubchem assays (depositor defined):AID1813, AID1829]; format: functional
[4] = inhibitors of SNCA 5'UTR-driven reporter translation, confirmation, H4 neuroglioma cells, luminescence (AID 1988); format: functional, cell-based
[5] = cytotoxicity in HEK-293T cells, dose response, cytotoxicity control for TCR NF-kB inhibitor project, luminescence, T-cell screen hits (AID 489026); format: functional, cell-based;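 further: cells exposed to compound about 14 hours before the viability readout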
[6] = Luminescence Cell-Based Dose Response HTS to Identify Inhibitors of Luciferase Translation or Activity in H4-C Neuroglioblastoma Cells. [Related pubchem assays: 1813 (Primary HTS), 1827 (Project Summary)]; format: functional
[7] = inhibitors of firefly luciferase expression or activity, dose response, H4 neuroglioma cells, luminescence (AID 1990); format: functional, cell-based
[8] = Luminescence Cell-Based Dose HTS Response to Identify Inhibitors of 5'UTR Stem-Loop Driven Prion Protein mRNA Translation in H4-C Neuroglioblastoma Cells. [Related pubchem assays (depositor defined):AID1814, AID1827]; format: functional
[9] = Luminescence Cell-Based Dose Confirmation HTS to Identify Inhibitors of 5'UTR Stem-Loop Driven Alpha-Synuclein mRNA Translation in H4 Neuroglioblastoma Cells. [Related pubchem assays: 1827 (Project Summary), 1813 (Primary HTS)]; format: functional
[10] = target: T1, Cannabinoid receptor 1 (Homo sapiens, UniProt P21554); experiment: SAR analysis of agonists of the Cannabinoid Receptor 1 using an Image-Based Assay - Set 4. [Related pubchem assays (depositor defined):AID2013, AID2026]; format: functional
[11] = target: T2, G-protein coupled receptor 35 (Homo sapiens, UniProt Q9HC97); experiment: SAR analysis of Agonists of the GPR35 Receptor using an Image-Based Assay - Set 4. [Related pubchem assays (depositor defined):AID2013, AID2026]; format: functional
[12] = target: T2, G-protein coupled receptor 35; experiment: SAR analysis of Antagonists of the GPR35 Receptor using an Image-Based Assay - Set 6. [Related pubchem assays (depositor defined):AID2013, AID2026]; format: functional
[13] = target: G-protein coupled receptor 55 (Homo sapiens, UniProt Q9Y2T6); experiment: SAR Analysis of Selective Antagonists of GPR55 using an Image-Based Assay - Set 4. [Related pubchem assays (depositor defined):AID2013, AID2026]; format: functional;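 further: antagonism of response to 5 µM lysophosphatidylinositol agonist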
[14] = target: T3, Cannabinoid receptor 2 (Homo sapiens, UniProt P34972); experiment: SAR analysis of antagonists of the Cannabinoid Receptor 2 using an Image-Based Assay - Set 3. [Related pubchem assays (depositor defined):AID2013, AID2026]; format: functional
[15] = target: T1, Cannabinoid receptor 1; experiment: SAR analysis of antagonists of the Cannabinoid Receptor 1 using an Image-Based Assay - Set 4. [Related pubchem assays (depositor defined):AID2013, AID2026]; format: functional
[16] = target: T3, Cannabinoid receptor 2; experiment: SAR analysis of agonists of the Cannabinoid Receptor 2 using an Image-Based Assay - Set 3. [Related pubchem assays (depositor defined):AID2013, AID2026]; format: functional
[17] = target: T4, Mu-type opioid receptor (Homo sapiens, UniProt P35372); experiment: SAR Analysis of Agonists of the MOR Receptor using an Image-Based Assay - Set 2. [Related pubchem assays (depositor defined):AID1777, AID1785, AID1786, AID1966, AID2133, AID2136, AID2284, AID2285, AID2352]; format: functional
[18] = target: T5, Kappa-type opioid receptor (Homo sapiens, UniProt P41145); experiment: SAR analysis of small molecule agonists of the kappa opioid receptor via a luminescent beta-arrestin assay - Set 2. [Related pubchem assays (depositor defined):AID1777, AID1785, AID1786, AID1966, AID2133, AID2136, AID2284, AID449737]; format: functional
[19] = target: T4, Mu-type opioid receptor; experiment: SAR Analysis of Antagonists of the MOR Receptor using an Image-Based Assay - Set 2. [Related pubchem assays (depositor defined):AID1777, AID1785, AID1786, AID1966, AID2133, AID2136, AID2284, AID2285, AID2420]; format: functional
[20] = target: T6, Delta-type opioid receptor (Homo sapiens, UniProt P41143); experiment: SAR Analysis of Agonists of the DOR Receptor using an Image-Based Assay - Set 2. [Related pubchem assays (depositor defined):AID1777, AID1785, AID1786, AID1966, AID2133, AID2136, AID2284, AID2285, AID2370]; format: functional
[21] = target: T6, Delta-type opioid receptor; experiment: SAR Analysis of Antagonists of the DOR Receptor using an Image-Based Assay - Set 2. [Related pubchem assays (depositor defined):AID1777, AID1785, AID1786, AID1966, AID2133, AID2136, AID2284, AID2285, AID2357]; format: functional
[22] = target: T5, Kappa-type opioid receptor; experiment: SAR analysis of Antagonists of the Kappa Opioid Receptor (KOR) using an Image-Based Assay - Set 2. [Related pubchem assays (depositor defined):AID1777, AID1785, AID1786, AID1966, AID2133, AID2136, AID2284, AID2285, AID2348]; format: functional
[23] = target: T5, Kappa-type opioid receptor; experiment: SAR analysis of Agonists of the Kappa Opioid Receptor (KOR) using an Image-Based Assay - Set 2. [Related pubchem assays (depositor defined):AID1777, AID1786, AID1966, AID2133, AID2136, AID2284, AID2285, AID2359]; format: functional
[24] = target: T7, Ubiquitin-conjugating enzyme E2 N (Homo sapiens, UniProt P61088); format: functional
T7 sequence (P61088 whole entry): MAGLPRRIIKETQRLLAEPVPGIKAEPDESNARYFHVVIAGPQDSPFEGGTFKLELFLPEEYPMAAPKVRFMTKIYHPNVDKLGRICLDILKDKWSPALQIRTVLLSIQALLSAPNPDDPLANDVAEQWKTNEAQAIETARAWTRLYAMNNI

[25] = target: T8, Bcl-2-related protein A1 (Mus musculus, UniProt Q07440); format: functional;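 further: confirmatory dose–response counterscreen on Bfl-1, used to check hits from a UBC13 polyubiquitin inhibitor campaign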
T8 sequence (Q07440 whole entry): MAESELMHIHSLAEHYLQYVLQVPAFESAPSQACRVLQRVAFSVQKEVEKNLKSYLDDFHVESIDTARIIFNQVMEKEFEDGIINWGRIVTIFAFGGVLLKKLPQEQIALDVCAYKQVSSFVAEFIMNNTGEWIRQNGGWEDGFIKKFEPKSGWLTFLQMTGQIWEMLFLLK

[26] = target: T7, Ubiquitin-conjugating enzyme E2 N; format: functional; remark: listed apart in the source

T5 sequence (P41145 whole entry): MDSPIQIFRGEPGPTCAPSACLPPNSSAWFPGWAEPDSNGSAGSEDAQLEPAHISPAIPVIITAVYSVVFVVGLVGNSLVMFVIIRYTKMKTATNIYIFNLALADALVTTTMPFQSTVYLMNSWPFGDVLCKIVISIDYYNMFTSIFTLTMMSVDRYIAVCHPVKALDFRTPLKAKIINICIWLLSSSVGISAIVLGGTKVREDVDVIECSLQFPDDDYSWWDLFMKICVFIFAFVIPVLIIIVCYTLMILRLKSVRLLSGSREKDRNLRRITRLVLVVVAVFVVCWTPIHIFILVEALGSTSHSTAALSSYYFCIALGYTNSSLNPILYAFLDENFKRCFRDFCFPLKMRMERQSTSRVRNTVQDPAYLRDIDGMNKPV
T6 sequence (P41143 whole entry): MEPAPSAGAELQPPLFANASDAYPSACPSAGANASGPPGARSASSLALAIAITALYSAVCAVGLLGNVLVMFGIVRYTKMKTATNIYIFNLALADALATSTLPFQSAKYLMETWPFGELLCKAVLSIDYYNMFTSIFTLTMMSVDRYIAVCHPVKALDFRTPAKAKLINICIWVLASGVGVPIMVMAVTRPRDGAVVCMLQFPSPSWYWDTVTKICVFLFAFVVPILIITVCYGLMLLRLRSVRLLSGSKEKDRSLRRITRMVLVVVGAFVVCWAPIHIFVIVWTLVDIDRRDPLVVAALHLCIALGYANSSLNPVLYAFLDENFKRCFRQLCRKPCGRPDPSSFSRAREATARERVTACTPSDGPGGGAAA
T2 sequence (Q9HC97 whole entry): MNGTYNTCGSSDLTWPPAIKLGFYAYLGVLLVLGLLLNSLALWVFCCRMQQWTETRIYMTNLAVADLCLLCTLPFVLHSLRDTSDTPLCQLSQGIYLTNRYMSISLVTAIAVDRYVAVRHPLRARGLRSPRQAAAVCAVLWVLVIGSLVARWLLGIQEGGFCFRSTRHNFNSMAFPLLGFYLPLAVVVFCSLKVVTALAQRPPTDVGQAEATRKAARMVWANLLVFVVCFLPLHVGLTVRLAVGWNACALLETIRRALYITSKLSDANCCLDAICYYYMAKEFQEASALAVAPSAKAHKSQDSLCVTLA
T1 sequence (P21554 whole entry): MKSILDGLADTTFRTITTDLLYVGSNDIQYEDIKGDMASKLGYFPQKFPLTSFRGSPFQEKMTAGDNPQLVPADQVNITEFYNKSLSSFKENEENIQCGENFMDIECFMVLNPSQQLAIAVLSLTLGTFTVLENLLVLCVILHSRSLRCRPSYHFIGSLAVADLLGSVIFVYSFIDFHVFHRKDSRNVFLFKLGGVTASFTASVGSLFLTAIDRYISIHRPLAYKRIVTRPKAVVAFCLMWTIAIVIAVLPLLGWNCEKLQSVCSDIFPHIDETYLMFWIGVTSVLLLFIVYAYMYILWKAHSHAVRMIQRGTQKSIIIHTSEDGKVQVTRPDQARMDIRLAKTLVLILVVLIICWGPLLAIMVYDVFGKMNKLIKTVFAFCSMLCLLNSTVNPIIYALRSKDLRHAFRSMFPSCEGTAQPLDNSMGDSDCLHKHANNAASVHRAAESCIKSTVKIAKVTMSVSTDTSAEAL
T3 sequence (P34972 whole entry): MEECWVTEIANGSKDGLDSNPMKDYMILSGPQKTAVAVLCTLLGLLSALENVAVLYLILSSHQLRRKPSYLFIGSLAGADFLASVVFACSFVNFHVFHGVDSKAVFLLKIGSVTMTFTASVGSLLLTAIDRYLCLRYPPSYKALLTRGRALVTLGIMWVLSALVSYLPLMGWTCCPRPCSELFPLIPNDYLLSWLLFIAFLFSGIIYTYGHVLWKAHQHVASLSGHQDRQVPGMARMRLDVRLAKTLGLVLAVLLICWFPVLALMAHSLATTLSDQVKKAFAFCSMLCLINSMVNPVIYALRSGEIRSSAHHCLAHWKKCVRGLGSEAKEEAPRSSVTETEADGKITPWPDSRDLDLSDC
T4 sequence (P35372 whole entry): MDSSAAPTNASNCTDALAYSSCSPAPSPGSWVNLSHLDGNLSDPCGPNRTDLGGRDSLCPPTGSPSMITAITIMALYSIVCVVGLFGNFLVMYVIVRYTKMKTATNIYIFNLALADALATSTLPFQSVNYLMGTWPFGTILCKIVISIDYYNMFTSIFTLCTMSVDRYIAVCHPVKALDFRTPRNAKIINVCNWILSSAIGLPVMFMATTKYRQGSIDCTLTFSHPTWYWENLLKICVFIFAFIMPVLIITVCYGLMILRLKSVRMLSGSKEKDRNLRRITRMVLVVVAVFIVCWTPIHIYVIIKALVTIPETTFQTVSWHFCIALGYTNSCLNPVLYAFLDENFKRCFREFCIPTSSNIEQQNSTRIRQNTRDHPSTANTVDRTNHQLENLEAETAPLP
G-protein coupled receptor 55, sequence (Q9Y2T6 whole entry): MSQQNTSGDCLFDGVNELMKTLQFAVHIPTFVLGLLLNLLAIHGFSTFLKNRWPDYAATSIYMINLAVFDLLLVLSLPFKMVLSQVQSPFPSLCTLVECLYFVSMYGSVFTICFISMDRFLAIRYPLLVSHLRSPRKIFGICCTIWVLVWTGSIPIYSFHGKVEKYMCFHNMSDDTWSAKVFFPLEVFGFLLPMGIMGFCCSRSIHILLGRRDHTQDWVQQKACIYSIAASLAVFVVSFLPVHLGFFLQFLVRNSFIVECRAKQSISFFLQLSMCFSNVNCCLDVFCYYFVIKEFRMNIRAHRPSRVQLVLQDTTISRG

COc1ccc(/C=C/C(=O)c2cc(F)ccc2OC(=O)c2ccccc2)cc1OC
EC50 [1]: 0.699 µM (inconclusive)
EC50 [2]: 0.697 µM (inconclusive)
EC50 [3]: 0.666 µM (inconclusive)
EC50 [4]: < 0.195 µM (active)
IC50 [5]: > 80 µM (inactive)
EC50 [6]: 0.697 µM (active)
EC50 [7]: 12.8 µM (active)
EC50 [8]: 0.699 µM (active)
EC50 [9]: 0.666 µM (active)

O=C(N1CCC(n2nc(-c3ccccc3)oc2=O)CC1)C1(c2ccccc2)CCCC1
EC50 [10]: > 32 µM (inactive)
EC50 [11]: > 32 µM (inactive)
IC50 [12]: > 32 µM (inactive)
IC50 [13]: 2.7 µM (active)
IC50 [14]: 14 µM (inactive)
IC50 [15]: 1.98 µM (active)
EC50 [16]: > 32 µM (inactive)

CCc1ccc(S(=O)(=O)NCc2ccc(C(=O)NCCN(Cc3ccccc3)C(C)C)cc2)cc1
EC50 [17]: > 32 µM (inactive)
EC50 [18]: > 20 µM (inactive)
IC50 [19]: > 32 µM (inactive)
EC50 [20]: > 32 µM (inactive)
IC50 [21]: > 32 µM (inactive)
IC50 [22]: 2.55 µM (active)
EC50 [23]: > 32 µM (inactive)

C/C(=N\NC(=O)CSCc1ccc([N+](=O)[O-])cc1)c1ccccc1
IC50 [24]: 4.9 µM (active)
IC50 [25]: > 20 µM (inactive)
IC50 [26]: 6.86 µM (active)
